Like-named read-outs stand apart in the source and are kept apart here.
Key:
[1] = target: SETD2 (Homo sapiens, UniProt Q9BYW2); assay: Methyltransferase inhibition panel: SETD2; type: biochemical
Experimental: (§1) The ability of ETP69 to inhibit methyltransferases was tested.

[2] = target: MLL2 Complex (Homo sapiens, UniProt O14686); assay: Methyltransferase inhibition panel: MLL2 Complex; type: biochemical
Experimental: as §1

[3] = target: DNMT3a (Homo sapiens, UniProt Q9Y6K1); assay: Methyltransferase inhibition panel: DNMT3a; type: biochemical; conditions: NT1721 20 μM; substrate Lambda DNA 0.0075 mg/mL
Experimental: as §1

[4] = test system: 6E10; assay: 6E10 staining of brain sections; type: in vivo; conditions: AD+ mice; 4 and 15 days
Excerpt: ETP69 administration reduced AD-related brain pathology (FIGS. 9A-9C). Brain sections were stained for H3K9me3, 6E10 and GFAP.

[5] = target: T1, SMYD3 (Homo sapiens, UniProt Q9H7B4); assay: Methyltransferase inhibition panel: SMYD3; type: biochemical
T1 sequence (Q9H7B4 1-428): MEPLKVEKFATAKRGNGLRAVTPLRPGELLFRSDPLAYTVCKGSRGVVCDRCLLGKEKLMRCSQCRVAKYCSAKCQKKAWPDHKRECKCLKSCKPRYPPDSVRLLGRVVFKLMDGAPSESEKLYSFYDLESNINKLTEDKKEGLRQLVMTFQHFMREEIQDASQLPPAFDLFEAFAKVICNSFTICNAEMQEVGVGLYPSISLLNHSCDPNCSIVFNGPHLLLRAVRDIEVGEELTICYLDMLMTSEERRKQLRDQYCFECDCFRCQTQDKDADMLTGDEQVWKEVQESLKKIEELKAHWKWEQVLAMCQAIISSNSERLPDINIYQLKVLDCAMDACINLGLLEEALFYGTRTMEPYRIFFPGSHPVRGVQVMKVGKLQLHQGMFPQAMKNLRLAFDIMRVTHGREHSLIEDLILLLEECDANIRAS
Experimental: as §1

[6] = target: T2, PRMT7 (Homo sapiens, UniProt Q9NVM4); assay: Methyltransferase inhibition panel: PRMT7; type: biochemical
T2 sequence (Q9NVM4 1-692): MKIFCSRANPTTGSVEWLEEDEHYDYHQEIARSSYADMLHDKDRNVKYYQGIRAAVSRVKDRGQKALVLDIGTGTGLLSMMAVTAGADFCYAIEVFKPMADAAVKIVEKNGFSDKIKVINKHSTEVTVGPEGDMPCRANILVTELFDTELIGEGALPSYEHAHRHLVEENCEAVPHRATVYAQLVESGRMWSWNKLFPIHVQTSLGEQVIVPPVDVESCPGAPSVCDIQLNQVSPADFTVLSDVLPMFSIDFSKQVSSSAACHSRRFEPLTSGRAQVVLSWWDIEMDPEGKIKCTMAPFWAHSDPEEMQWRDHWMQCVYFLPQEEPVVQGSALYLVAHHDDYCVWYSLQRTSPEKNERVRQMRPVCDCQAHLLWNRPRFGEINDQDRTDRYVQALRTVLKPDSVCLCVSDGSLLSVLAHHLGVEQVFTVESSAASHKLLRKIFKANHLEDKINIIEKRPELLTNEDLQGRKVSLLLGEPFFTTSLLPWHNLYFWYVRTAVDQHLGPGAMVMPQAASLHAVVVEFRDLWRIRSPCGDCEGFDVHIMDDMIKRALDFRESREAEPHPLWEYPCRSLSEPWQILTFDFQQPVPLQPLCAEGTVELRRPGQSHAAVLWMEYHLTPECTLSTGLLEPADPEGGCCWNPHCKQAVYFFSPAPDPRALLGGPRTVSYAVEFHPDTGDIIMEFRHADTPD
Experimental: as §1

[7] = NT1721 20 μM, substrate Nucleosomes 0.05 mg/mL
[8] = read-out: Enzyme % Activity (relative to DMSO controls) Data 1
[9] = read-out: Enzyme % Activity (relative to DMSO controls) Data 2
[10] = NT1721 20 μM, substrate GST-GAR 5 μM

Sequence of MLL2 Complex (O14686 5319-5537): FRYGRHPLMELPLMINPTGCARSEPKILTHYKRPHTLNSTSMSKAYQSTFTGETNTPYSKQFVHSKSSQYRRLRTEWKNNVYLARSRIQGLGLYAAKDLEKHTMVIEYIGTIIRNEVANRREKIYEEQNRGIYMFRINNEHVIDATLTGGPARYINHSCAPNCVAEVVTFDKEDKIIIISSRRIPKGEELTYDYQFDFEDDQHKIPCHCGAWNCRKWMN
Sequence of MLL2 Complex (Q9UBL3 whole entry, further chain): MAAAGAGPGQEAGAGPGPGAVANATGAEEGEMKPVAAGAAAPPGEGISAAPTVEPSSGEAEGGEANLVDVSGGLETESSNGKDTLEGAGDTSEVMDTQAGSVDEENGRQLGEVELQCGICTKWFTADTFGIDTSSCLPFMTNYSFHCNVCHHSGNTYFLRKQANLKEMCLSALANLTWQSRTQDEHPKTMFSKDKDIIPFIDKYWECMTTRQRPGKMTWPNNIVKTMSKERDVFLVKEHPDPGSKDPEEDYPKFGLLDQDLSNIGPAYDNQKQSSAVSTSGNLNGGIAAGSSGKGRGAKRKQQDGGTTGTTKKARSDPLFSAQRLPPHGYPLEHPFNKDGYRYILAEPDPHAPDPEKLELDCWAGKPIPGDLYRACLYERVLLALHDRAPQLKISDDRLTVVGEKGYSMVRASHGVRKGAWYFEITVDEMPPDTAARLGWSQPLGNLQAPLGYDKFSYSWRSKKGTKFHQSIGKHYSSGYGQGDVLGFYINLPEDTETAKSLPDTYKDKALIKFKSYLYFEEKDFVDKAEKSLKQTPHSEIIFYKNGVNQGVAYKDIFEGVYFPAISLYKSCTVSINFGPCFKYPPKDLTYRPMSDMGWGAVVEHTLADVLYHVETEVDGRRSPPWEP
Sequence of MLL2 Complex (Q9C005 whole entry, further chain): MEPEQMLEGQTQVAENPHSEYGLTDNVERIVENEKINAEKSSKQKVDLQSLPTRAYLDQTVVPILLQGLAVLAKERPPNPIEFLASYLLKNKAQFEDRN
Sequence of MLL2 Complex (Q15291 whole entry, further chain): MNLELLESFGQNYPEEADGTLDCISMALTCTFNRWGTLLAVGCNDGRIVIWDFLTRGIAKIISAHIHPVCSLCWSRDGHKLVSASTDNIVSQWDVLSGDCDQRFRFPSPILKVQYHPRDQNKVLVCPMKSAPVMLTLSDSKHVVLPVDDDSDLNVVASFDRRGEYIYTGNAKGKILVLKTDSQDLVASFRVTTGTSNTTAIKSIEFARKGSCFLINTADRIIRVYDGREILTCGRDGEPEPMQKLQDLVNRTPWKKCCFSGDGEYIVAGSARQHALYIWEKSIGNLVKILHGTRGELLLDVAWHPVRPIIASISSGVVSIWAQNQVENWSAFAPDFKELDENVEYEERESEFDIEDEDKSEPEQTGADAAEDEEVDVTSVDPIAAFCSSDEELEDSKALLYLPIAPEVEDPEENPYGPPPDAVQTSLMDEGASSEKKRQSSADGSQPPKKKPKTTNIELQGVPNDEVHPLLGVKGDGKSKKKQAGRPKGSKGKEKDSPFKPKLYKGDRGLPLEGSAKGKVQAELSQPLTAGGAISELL
Sequence of SETD2 (Q9BYW2 whole entry): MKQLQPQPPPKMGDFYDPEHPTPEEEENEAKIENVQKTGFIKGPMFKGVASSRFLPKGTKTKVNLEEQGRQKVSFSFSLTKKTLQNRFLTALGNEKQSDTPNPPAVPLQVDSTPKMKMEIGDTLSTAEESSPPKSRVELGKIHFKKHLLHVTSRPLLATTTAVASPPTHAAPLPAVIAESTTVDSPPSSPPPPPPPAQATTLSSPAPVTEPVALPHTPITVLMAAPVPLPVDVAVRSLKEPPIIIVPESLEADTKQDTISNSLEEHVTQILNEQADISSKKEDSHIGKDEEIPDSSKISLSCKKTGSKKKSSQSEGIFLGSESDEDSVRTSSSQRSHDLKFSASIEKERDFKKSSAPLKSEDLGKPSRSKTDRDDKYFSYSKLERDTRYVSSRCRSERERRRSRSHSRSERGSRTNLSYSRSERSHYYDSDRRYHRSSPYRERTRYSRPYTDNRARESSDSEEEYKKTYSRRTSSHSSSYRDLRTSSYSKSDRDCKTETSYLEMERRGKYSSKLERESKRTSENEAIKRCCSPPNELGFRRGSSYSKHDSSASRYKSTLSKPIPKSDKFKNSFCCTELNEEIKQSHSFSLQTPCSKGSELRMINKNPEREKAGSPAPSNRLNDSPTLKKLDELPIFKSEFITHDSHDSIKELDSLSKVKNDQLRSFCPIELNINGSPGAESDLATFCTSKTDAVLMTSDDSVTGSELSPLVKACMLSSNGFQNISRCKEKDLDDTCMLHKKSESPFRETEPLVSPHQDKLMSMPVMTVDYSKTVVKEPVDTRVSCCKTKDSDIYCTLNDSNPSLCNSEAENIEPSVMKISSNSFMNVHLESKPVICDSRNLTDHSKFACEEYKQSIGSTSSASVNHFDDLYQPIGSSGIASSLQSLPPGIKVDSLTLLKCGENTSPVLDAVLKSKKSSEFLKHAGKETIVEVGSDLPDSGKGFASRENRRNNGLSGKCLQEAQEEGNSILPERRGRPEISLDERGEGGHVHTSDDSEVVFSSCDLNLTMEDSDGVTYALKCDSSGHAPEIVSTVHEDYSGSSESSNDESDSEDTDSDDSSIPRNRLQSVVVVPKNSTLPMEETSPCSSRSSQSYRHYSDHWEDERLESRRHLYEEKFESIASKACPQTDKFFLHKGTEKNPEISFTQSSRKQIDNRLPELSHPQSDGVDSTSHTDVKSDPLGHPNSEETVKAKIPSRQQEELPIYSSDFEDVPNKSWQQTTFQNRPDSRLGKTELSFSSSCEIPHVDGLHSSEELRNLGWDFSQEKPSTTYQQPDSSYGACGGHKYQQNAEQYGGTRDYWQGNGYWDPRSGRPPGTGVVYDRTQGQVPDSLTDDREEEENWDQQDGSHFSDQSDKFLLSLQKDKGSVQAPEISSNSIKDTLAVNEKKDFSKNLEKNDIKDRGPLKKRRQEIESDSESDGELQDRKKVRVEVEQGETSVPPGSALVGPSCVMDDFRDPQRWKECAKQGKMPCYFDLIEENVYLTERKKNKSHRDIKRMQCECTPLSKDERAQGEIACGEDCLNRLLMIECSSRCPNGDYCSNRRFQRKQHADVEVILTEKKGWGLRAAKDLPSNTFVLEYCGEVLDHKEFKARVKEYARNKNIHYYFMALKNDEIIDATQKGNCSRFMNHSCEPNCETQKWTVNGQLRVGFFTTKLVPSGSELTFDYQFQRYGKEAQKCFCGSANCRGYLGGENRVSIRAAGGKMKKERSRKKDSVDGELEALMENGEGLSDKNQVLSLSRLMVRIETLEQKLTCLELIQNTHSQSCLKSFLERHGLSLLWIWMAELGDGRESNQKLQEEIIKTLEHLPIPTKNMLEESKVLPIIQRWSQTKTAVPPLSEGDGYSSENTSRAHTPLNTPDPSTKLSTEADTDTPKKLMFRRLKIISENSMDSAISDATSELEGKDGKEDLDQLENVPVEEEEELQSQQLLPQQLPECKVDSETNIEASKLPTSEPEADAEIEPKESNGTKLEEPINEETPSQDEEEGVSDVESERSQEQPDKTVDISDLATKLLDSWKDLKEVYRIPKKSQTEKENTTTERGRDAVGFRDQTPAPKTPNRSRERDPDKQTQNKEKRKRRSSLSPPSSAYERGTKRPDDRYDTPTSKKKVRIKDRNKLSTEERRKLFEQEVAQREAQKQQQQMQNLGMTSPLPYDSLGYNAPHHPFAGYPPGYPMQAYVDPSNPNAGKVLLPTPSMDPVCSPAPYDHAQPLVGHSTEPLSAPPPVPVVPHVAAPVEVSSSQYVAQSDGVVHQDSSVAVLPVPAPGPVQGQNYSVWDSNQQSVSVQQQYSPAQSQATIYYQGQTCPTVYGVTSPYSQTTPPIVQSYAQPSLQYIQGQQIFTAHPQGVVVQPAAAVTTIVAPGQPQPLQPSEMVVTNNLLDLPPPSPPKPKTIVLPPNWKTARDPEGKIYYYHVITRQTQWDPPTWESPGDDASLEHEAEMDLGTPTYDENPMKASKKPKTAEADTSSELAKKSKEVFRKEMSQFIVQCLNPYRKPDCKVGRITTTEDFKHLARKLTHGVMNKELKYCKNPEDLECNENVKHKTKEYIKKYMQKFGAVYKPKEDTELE
Sequence of DNMT3a (Q9Y6K1 whole entry, looked up): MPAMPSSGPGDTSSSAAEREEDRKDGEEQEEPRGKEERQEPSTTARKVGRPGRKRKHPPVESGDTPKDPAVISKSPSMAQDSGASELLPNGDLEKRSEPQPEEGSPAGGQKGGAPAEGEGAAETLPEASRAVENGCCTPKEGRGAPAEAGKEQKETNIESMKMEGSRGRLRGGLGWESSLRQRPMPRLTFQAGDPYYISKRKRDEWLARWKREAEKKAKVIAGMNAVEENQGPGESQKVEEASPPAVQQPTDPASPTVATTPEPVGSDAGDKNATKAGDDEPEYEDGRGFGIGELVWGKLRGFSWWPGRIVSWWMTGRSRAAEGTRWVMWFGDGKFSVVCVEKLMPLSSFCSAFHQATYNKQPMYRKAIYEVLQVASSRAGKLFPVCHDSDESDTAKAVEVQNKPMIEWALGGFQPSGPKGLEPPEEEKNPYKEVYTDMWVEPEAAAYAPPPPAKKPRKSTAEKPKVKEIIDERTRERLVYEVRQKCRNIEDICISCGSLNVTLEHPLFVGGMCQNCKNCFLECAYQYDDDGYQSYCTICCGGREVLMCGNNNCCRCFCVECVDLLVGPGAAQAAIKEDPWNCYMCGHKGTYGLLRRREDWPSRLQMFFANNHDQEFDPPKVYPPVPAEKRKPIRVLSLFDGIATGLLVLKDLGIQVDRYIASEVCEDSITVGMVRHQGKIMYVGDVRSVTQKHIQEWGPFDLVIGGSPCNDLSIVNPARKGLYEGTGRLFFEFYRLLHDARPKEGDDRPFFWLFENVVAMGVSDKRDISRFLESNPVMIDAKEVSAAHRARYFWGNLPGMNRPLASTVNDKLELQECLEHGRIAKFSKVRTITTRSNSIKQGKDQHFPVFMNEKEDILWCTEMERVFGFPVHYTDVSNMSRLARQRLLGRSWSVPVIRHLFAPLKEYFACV

CN1C(=O)[C@@]23C[C@](C)(C#N)[C@H](c4ccc5c(c4)OCO5)N2C(=O)[C@]1(C)SS3 (racemic) [ETP69, Rac-(3S,6S,7S,8aS)-6-(benzo[d][1,3]dioxol-5-yl)-2,3,7-trimethyl-1,4-dioxohexahydro-6H-3,8a-epidithiopyrrolo[1,2-a]pyrazine-7-carbonitrile]
Enzyme % Activity (relative to DMSO controls) Data 1 [1, 7]: 20.95%
Enzyme % Activity (relative to DMSO controls) Data 2 [1, 7]: 22.89%
inhibition relative to DMSO controls ([1]; summary of Table 1): at least 7500
remaining activity at 20 µM [2, 8]: 19%
remaining activity at 20 µM [2, 9]: 20.4%
inhibition relative to DMSO controls ([2]; summary of Table 1): at least 7500
Enzyme % Activity (relative to DMSO controls) Data 1 [3]: 76.81%
Enzyme % Activity (relative to DMSO controls) Data 2 [3]: 78.12%
6E10 [4]: significant decrease
remaining activity at 20 µM [5, 8]: 8.99%
remaining activity at 20 µM [5, 9]: 7.71%
inhibition relative to DMSO controls ([5]; summary of Table 1): at least 7500
Enzyme % Activity (relative to DMSO controls) Data 1 [6, 10]: 66.70%
Enzyme % Activity (relative to DMSO controls) Data 2 [6, 10]: 66.73%
inhibition relative to DMSO controls ([6]; summary of Table 1): at least 7500
